In PMC4503722, “Novel Phenotypic Outcomes Identified for a Public Collection of Approved Drugs from a Publicly Accessible Panel of Assays” (PLoS ONE, 2015):
Where two headings read alike, the source gives them in different places.

Key:
INS-1E cells = experiment: cells; type: cell-based, rat;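 further: secreted insulin quantified by homogeneous immunoassay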
[1] = system: ECFC/ADSC co-culture cell nuclei number
[2] = system: endothelial tube formation in co-cultures of ECFCs and ADSCs treated with VEGF; experiment: cells; type: cell-based, human
HeLa cells = experiment: cells; type: cell-based

Compound	5mMGluc_INS1E SecretionMod IC50/EC50 (INS-1E cells; assay number 8, 5 mM glucose) [µM]	further results
COCCCOc1ccnc(C[S+]([O-])c2nc3ccccc3[n-]2)c1C.[Na+] (stereo not shown) [NCGC00159518-05]		IC50/EC50, 5mMGluc_INS1E SecretionMod (assay number 8) (INS-1E cells; 5 mM glucose): > 33.33 µM
CN(C)CCN1C(=O)c2ccccc2N(C)c2ccccc21 [NCGC00160395-04]		IC50/EC50, 5mMGluc_INS1E SecretionMod (assay number 8) (INS-1E cells; 5 mM glucose): > 33.33 µM
CN1CCN(CCC(=O)N2c3ccccc3Sc3ccc(C(F)(F)F)cc32)CC1 [NCGC00160483-02]	> 11.11	
CCCC(CCC)C(=O)O [NCGC00162288-07]		IC50/EC50, 5mMGluc_INS1E SecretionMod (assay number 8) (INS-1E cells; 5 mM glucose): > 33.33 µM
O=C(CCN1CCN2CCCC2C1)N1c2ccccc2Sc2ccc(Cl)cc21 (stereo not shown) [NCGC00164539-02]	16.7552	
CCCN1CCCC[C@H]1C(=O)Nc1c(C)cccc1C [NCGC00164597-02]	> 33.33	
CCN(CC)CCNC(=O)c1c(C)[nH]c(/C=C2\C(=O)Nc3ccc(F)cc32)c1C [NCGC00164631-05]	> 33.33	VEGF_ADSC\ECFC Angio Hoechst NucArea IC50/EC50 [1]: > 10 µM; VEGF_ADSC\ECFC Angio CD31 TubeArea IC50/EC50 [2]: 0.0254 µM; Hela CellCycMod PI 2N IC50/EC50 (HeLa cells; assay number 14, 2N): > 10 µM; Hela CellCycMod PI S Phase IC50/EC50 (HeLa cells; assay number 15, S phase): > 10 µM; Hela CellCycMod PI 4N IC50/EC50 (HeLa cells; assay number 16, 4N): > 10 µM; Hela CellCycMod PI MI IC50/EC50 (HeLa cells; assay number 17, MI): 3.8121 µM; Hela CellCycMod PI Cell Number IC50/EC50 (HeLa cells; assay number 18, cell number): 1.2784 µM
Cc1cc(-n2nc3ccc(Cl)cc3n2)c(O)c(C(C)(C)C)c1 [NCGC00166260-03]	> 33.33	
CCN1CCCC(OC(=O)C(c2ccccc2)c2ccccc2)C1 (stereo not shown) [NCGC00178395-04]	18.2267	
C[C@@H](CN(C)C)CN1c2ccccc2Sc2ccccc21.C[C@@H](CN(C)C)CN1c2ccccc2Sc2ccccc21.O=C(O)C(O)C(O)C(=O)O [NCGC00178737-05]		IC50/EC50, 5mMGluc_INS1E SecretionMod (assay number 8) (INS-1E cells; 5 mM glucose): > 33.33 µM
CCN(CC)C(C)CN1c2ccccc2Sc2ccccc21.Cl (stereo not shown) [NCGC00178860-06]	> 33.33	
CC(C(O)c1ccccc1)N(C)CCOC(c1ccccc1)c1ccccc1 (stereo not shown) [NCGC00181913-02]	> 33.33	
CCO[C@H](Cc1ccc(OCCc2ccc(OS(C)(=O)=O)cc2)cc1)C(=O)O [NCGC00182082-03]	> 33.33	
CN1CCC(N(Cc2cccs2)c2ccccc2)CC1 [NCGC00183847-01]		5mMGluc_INS1E SecretionMod IC50/EC50 (INS-1E cells): 20.3958 µM
Cc1ccc(-n2nc(C(C)(C)C)cc2NC(=O)Nc2ccc(OCCN3CCOCC3)c3ccccc23)cc1 [NCGC00241104-02]	> 33.33	
CCCCN(CCCC)C(C(N)=O)c1ccc(OC)cc1 (stereo not shown) [NCGC00261978-01]	> 33.33	
CCC(CN)=C(c1ccccc1)c1ccccc1.Cl [NCGC00262942-01]	10.7785	
Cc1ccc(O)c([C@H](CCN(C(C)C)C(C)C)c2ccccc2)c1 [NCGC00263557-01]	> 33.33	
